Measured values from patent publication EP4424327A1, “METHOD OR AGENT WITH HDAC REGULATOR, FOR TREATMENT OF DIABETES AND COMPLICATIONS” (Biozipcode, Inc., priority 2021, dated 2023).

Key:
[1] = tested on: STZ-DM mice; test: TNF-α immunostaining (DAB staining) of bone marrow, thymus and pancreatic islets (Example 3); format: in vivo, C57BL/6 J mice
Experimental: In addition, mice in each experimental group were subjected to perfusion fixation, and then dissected to collect the femur, thymus, and pancreas. In the femur, bone tissue was demineralized using a neutral demineralizing solution (10% EDTA solution) to prepare a paraffin block. A paraffin section having a thickness of 3 µm was prepared from the paraffin block using a microtome, and was stained with DAB. As pretreatment for DAB staining, the paraffin section was deparaffinized with xylene and hydrophilized with ethanol, and the antigen was activated using HistoVT one (Nacalai Tesque). Thereafter, DAB staining was performed using TNF-α (abcam).

[2] = tested on: STZ-DM mice; test: Insulin and glucagon DAB staining of frozen pancreas sections (Example 3); format: in vivo, C57BL/6 J mice; details: givinostat administered simultaneously with blood glucose control (insulin pellet)
Experimental: 12 weeks after the start of treatment, some mice were subjected to perfusion fixation with a 4% PFA solution in 0.1 M PB and harvested pancreatic tissue was immersed overnight in a 15% sucrose solution in 0.1 M PB, and then, 8 um frozen sections were prepared with a cryostat. The frozen sections were washed 3 times with PBS (-) for 10 minutes, reacted in a 0.3% hydrogen peroxide solution (0.3% H2O2 in PBS (-)) for 30 minutes at room temperature to inactivate endogenous peroxidase in the sections, and then washed 3 times for 5 minutes with PBS (-). Thereafter, in order to prevent non-specific reactions, the sections were reacted with 5% normal goat serum in PBS (-) supplemented with 0.3% Triton X and blocked at room temperature for 1 hour. After blocking, the sections were reacted with a primary antibody (anti-insulin antibody: CST Inc. or anti-glucagon antibody: CST Inc.) at 4°C overnight. Thereafter, the sections was washed 3 times with PBS (-) for 5 minutes, reacted in ImmPRESS reagent (Vector laboratory) at room temperature for 30 minutes, and further washed. […] The prepared sections were observed under a microscope, about 5 to 8 pancreatic islets were randomly selected, and the percentage of insulin or glucagon positive cells relative to the size of the pancreatic islets was calculated using Image J software.

[3] = tested on: db/db mice; test: Treatment of db/db mice with HDAC regulator and insulin glargine (Example 5); format: in vivo; details: givinostat 2.5 mg/kg orally daily + insulin glargine s.c. daily (tapered from 10 IU), 8-12 weeks
Experimental: (§1) Db/db mice were observed from week 6, and the time point at which the blood glucose level exceeded 300 mg/dl was defined as the onset of diabetes mellitus. […] 2 hours after administration of insulin glargine, 2.5 mg/kg of givinostat was orally administered daily to a mouse whose blood glucose level was measured and blood glucose lowering was confirmed. When the blood glucose level before administration of insulin glargine was lower than 200 mg/dl at longer than 8 weeks after the start of treatment, the administration of insulin glargine and givinostat on that day was discontinued. When the blood glucose level on the next day was also below 200 mg/dl, insulin glargine and givinostat were stopped, and then, the blood glucose level was measured weekly until week 4 to determine the diabetic state. […] When hypoglycemia appeared, blood glucose levels were measured 1 hour after intraperitoneal (300 µL) administration of 25% glucose solution, and this operation was repeated when hypoglycemia was still persistent. […] When hypoglycemia was confirmed, the subsequent insulin was adjusted to 1/2 of the previous dose as necessary.

[4] = tested on: STZ-DM mice; test: Intraperitoneal glucose tolerance test (IPGTT) 12 weeks after start of treatment (Example 3); format: in vivo, C57BL/6 J mice; details: insulin pellet + givinostat compared with blank pellet + givinostat, 1.5 g/kg glucose i.p.
Experimental: (§2) Blood glucose levels were measured weekly for 12 weeks. In addition, an intraperitoneal glucose tolerance test (IPGTT) was performed on some mice 12 weeks after the start of treatment. After 16 hours of fasting, blood glucose level measurement and blood collection were performed at 0 minutes, 100 µl of a 1.5 g/kg glucose solution was intraperitoneally administered, and blood glucose level measurement and blood collection were performed at 30 minutes, 60 minutes, and 120 minutes, respectively. Serum was collected from the collected blood, and the serum insulin concentration was measured using an ultra-sensitive mouse insulin measurement kit (Morinaga Institute of Biological Science, Inc., Japan). FIG. 15 illustrates the transition of blood glucose, and FIG. 16 illustrates the transition of insulin concentration.

[5] = tested on: NOD mice; test: Treatment of diabetes mellitus in NOD mice with HDAC regulator and blood glucose control (Example 4); format: in vivo; details: givinostat 2.5 mg/kg orally daily + insulin glargine s.c. daily (tapered from 10 IU), 8-12 weeks
Experimental: as §1, with “The treatment was started for NOD” for “Db/db”, “one” for “were observed from”, “after confirmation of” for “6, and the time point at which the blood glucose level exceeded 300 mg/dl was defined as”, “hyperglycemia.” for “diabetes mellitus.”

[6] = tested on: STZ-DM mice; test: Effect of thymectomy on treatment of STZ-DM mice (Example 8); format: in vivo, C57BL/6 J mice
Experimental: Streptozotocin (150 mg/kg) was tail vein-administered to C57BL/6 J mice (wild type, CLEA Japan, Inc., Osaka) to develop diabetes mellitus. After one month of free feeding, an insulin pellet was subcutaneously administered to these STZ-DM mice to normalize their blood glucose levels. The mice were divided into two groups, for one group of mice, the thymus was removed from the suprasternal fossa (thymectomy group), and for the other group of mice, an incision was made in the suprasternal fossa and closed immediately (control group). Givinostat (Cayman chemical, USA) was orally administered at 2.5 mg/kg to both the thymectomy group and the control group. Givinostat was administered once every three days.
Blood glucose levels of mice in both groups were measured weekly (FIG. 24). After the end of 8 weeks of treatment, perfusion fixation was performed on both groups of mice to confirm the presence or absence of thymus (FIG. 25).

[7] = tested on: STZ-DM mice; test: Weight of the collected thymus (Example 3); format: in vivo, C57BL/6 J mice; details: givinostat simultaneously with blood glucose control, both oral and intravenous; non-diabetic 37 mg, diabetic 13 mg
[8] = tested on: STZ-DM mice; test: Drug treatment of STZ-DM mice (Example 3): weekly blood glucose levels; format: in vivo, C57BL/6 J mice
Experimental: An overview of the procedure is illustrated in FIG. 13. Streptozotocin (150 mg/kg) was tail vein-administered to C57BL/6 J mice (wild type, CLEA Japan, Inc., Osaka) (nonDM) to develop diabetes mellitus. For the STZ-DM mouse, the blood glucose level was normalized by insulin pellet administration, and the blank pellet was administered to a control group. In both the treatment group and the control group, 2.5 mg/kg of givinostat (Cayman chemical, USA) was administered to the tail vein or orally. The insulin pellet or the blank pellet was administered up to 3 days before the start of the givinostat treatment, and the administration of givinostat was started on the day on which it was confirmed that the blood glucose level of the treatment group fell within the normal range on day 0. Note that givinostat was administered once every three days until week 8. In addition, a non-diabetic group (nonDM) in which only a buffer was administered without administering STZ simultaneously with the treatment group, and a non-treated diabetic group (STZ-DM) in which neither blood glucose control nor treatment with givinostat was performed were also observed simultaneously.
as §2

[9] = tested on: db/db mice; test: Treatment of db/db mice with HDAC regulator and dapagliflozin (Example 6); format: in vivo; details: givinostat 2.5 mg/kg + dapagliflozin 1.0 mg/kg orally daily for 8 weeks, then 4 weeks off treatment
Experimental: Db/db mice were observed from week 6, and the time point at which the blood glucose level exceeded 300 mg/dl was defined as the onset of diabetes mellitus. In db/db mice with leptin receptor deficiency, 1.0 mg/kg of dapagliflozin, an SGLT inhibitor, and 2.5 mg/kg of givinostat, an HDAC regulator, were orally administered daily for 8 weeks, after which the treatment was discontinued for 4 weeks and terminated.

[10] = givinostat simultaneously with blood glucose control (insulin pellet)

## CCN(CC)Cc1ccc2cc(COC(=O)Nc3ccc(C(=O)NO)cc3)ccc2c1 [givinostat]
[1]; blank pellet + givinostat treatment (oral) and (intravenous)
  TNF-α positive cells in pancreatic islets: a large amount of TNF-α positive cells migrated to the center of the pancreatic islets
[1]; [10]
  TNF-α positive cells in bone marrow: TNF-α positive cells decreased to the same extent as the non-diabetic group
  TNF-α positive cells in thymus: TNF-α positive cells decreased to the same extent as the non-diabetic group
[1]; insulin pellet + givinostat treatment (oral) and (intravenous)
  TNF-α positive cells in pancreatic islets: almost no TNF-α positive cells were observed
[2]; nonDM about 10%, STZ-DM 75%
  area of glucagon positive cells, of the entire pancreatic islets: about 40%
[2]; pancreatic islets, 12 weeks
  area of insulin positive cells, relative to nonDM: about 1/2
[3]
  diabetes mellitus outcome: cured
[4]
  blood glucose levels after IPGTT: early normalization of blood glucose levels
  insulin in blood after IPGTT: high blood insulin elevation
[5]
  diabetes mellitus outcome: cured
[6]; control group without thymectomy, insulin pellet + givinostat 2.5 mg/kg orally once every three days, 8 weeks
  blood glucose levels: no increase in blood glucose levels was observed
[6]; control group without thymectomy, insulin pellet + givinostat, week 8
  thymus atrophied by diabetes mellitus: recovered to a normal level
[6]; thymectomy group, insulin pellet + givinostat 2.5 mg/kg orally once every three days, 8 weeks
  blood glucose level at the end of treatment: about 400 mg/dL
[6]; thymectomy group, insulin pellet + givinostat, week 8
  thymus: the thymus did not recover even when the treatment was performed
[7]
  thymus weight, relative to normal: about 2/3
[8]; givinostat 2.5 mg/kg for 8 weeks without insulin pellet (blank pellet)
  blood glucose level: the blood glucose level did not decrease even when givinostat was administered for 8 weeks
[8]; insulin pellet + givinostat 2.5 mg/kg (oral or intravenous, once every three days for 8 weeks), start of treatment
  blood glucose levels: immediately decreased
[8]; insulin pellet + givinostat (both orally and intravenously), after discontinuing givinostat after week 9, up to week 12
  blood glucose level: the reduction in blood glucose level continued even after discontinuing givinostat after week 9
[9]
  diabetes mellitus outcome: cured
